In patent publication US7465743B2, “Pyrazolo[3,4-b]pyridine compounds, and their use as PDE4 inhibitors” (Glaxo Group Limited, priority 2004, dated 2008):

Key:
[1] = biological target: T1, PDE4B (human recombinant) (Homo sapiens, UniProt Q07343); assay: Inhibition of PDE4B activity (radioactive SPA assay or IMAP FP assay); assay type: biochemical; details: specific Examples; for Selectivity (PDE4B/PDE5 EMR ratio, not log scale): ratio PDE4B vs PDE5, not log scale; for IC50: one reading or average of ca. 2-6 readings, read-out: PDE4B pIC50 (± about 0.5) (converted)
T1 construct: made in house
T1 sequence (Q07343 1-564 isoform Q07343-2): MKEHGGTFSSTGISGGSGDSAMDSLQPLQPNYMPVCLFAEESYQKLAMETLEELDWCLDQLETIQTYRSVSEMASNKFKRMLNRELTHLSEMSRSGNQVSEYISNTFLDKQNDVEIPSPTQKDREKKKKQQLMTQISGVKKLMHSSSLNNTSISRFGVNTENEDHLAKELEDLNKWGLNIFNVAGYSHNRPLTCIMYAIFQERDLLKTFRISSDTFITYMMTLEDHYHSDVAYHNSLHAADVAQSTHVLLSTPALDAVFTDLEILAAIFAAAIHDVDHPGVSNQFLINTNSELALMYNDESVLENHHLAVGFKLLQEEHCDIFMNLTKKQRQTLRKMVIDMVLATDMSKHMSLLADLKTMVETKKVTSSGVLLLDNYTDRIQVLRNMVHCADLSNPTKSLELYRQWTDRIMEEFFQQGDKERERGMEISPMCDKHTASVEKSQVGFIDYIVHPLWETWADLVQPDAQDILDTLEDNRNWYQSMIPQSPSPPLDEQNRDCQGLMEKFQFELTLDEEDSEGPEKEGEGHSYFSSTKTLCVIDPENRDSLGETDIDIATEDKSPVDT
Source text: Human recombinant PDE4B, in particular the 2B splice variant thereof (HSPDE4B2B), is disclosed in WO 94/20079 and also M. M. McLaughlin et al., “A low Km, rolipram-sensitive, cAMP-specific phosphodiesterase from human brain: cloning and expression of cDNA, biochemical characterisation of recombinant protein, and tissue distribution of mRNA”, J. Biol. Chem., 1993, 268, 6470-6476. For example, in Example 1 of WO 94/20079, human recombinant PDE4B is described as being expressed in the PDE-deficient yeast Saccharomyces cerevisiae strain GL62, e.g. after induction by addition of 150 uM CuSO4, and 100,000×g supernatant fractions of yeast cell lysates are described for use in the harvesting of PDE4B enzyme.
(§1) Inhibition of PDE 3, PDE 4B, PDE 4D, PDE 5 or PDE 6 Activity: Radioactive Scintillation Proximity Assay (SPA)
(§2) The ability of compounds to inhibit catalytic activity at PDE4B or 4D (human recombinant), PDE3 (from bovine aorta), PDE5 (human recombinant) or PDE6 (from bovine retina) is determined by Scintillation Proximity Assay (SPA) in 96-well format. Test compounds (as a solution in DMSO, preferably about 2 microliter (ul) volume of DMSO solution) are preincubated at ambient temperature (room temperature, e.g. 19-23° C.) in Wallac Isoplates (code 1450-514) with PDE enzyme in 50 mM Tris-HCl buffer pH 7.5, 8.3 mM MgCl2, 1.7 mM EGTA, 0.05% (w/v) bovine serum albumin for 10-30 minutes (usually 30 minutes). The enzyme concentration is adjusted so that no more than 20% hydrolysis of the substrate defined below occurs in control wells without compound, during the incubation. For the PDE3, PDE4B and PDE4D assays, [5′,8-^3H]Adenosine 3′,5′-cyclic phosphate (Amersham Pharmacia Biotech, code TRK.559; or Amersham Biosciences UK Ltd, Pollards Wood, Chalfont St Giles, Buckinghamshire HP8 4SP, UK) is added to give 0.05 uCi per well and ˜10 nM final concentration. For the PDE5 and PDE6 assays, [8-^3H]Guanosine 3′,5′-cyclic phosphate (Amersham Pharmacia Biotech, code TRK.392) is added to give 0.05 uCi per well and ˜36 nM final concentration. Plates containing assay mixture, preferably approx. 100 ul volume of assay mixture, are mixed on an orbital shaker for 5 minutes and incubated at ambient temperature for 1 hour. Phosphodiesterase SPA beads (Amersham Pharmacia Biotech, code RPNQ 0150) are added (˜1 mg per well) to terminate the assay. Plates are sealed and shaken and allowed to stand at ambient temperature for 35 minutes to 1 hour (preferably 35 minutes) to allow the beads to settle. Bound radioactive product is measured using a WALLAC TRILUX 1450 Microbeta scintillation counter. For inhibition curves, 10 concentrations (1.5 nM-30 uM) of each compound are assayed. Curves are analysed using ActivityBase and XLfit (ID Business Solutions Limited, 2 Ocean Court, Surrey Research Park, Guildford, Surrey GU2 7QB, United Kingdom) Results are expressed as pIC50 values.
Inhibition of PDE4B or PDE4D Activity: Fluorescence Polarisation (FP) Assay
The ability of compounds to inhibit catalytic activity at PDE4B (human recombinant) or PDE4D (human recombinant) is determined by IMAP Fluorescence Polarisation (FP) assay (IMAP Explorer kit, available from Molecular Devices Corporation, Sunnydale, Calif., USA; Molecular Devices code: R8062) in 384-well format. The IMAP FP assay is able to measure PDE activity in an homogenous, non-radioactive assay format. The FP assay uses the ability of immobilised trivalent metal cations, coated onto nanoparticles (tiny beads), to bind the phosphate group of Fl-AMP that is produced on the hydrolysis of fluorescein-labelled (Fl) cyclic adenosine mono-phosphate (Fl-cAMP) to the non-cyclic Fl-AMP form. […] Binding of Fl-AMP product to the beads (coated with the immobilised trivalent cations) slows the rotation of the bound Fl-AMP and leads to an increase in the fluorescence polarisation ratio of parallel to perpendicular light. Inhibition of the PDE reduces/inhibits this signal increase. […]

PDE5 (human recombinant) = PDE5 (human recombinant) (Homo sapiens, UniProt O76074); assay: Inhibition of PDE5 activity (radioactive SPA assay); assay type: biochemical; details: specific Examples; one reading or average of ca. 2-6 readings; read-out: PDE5 pIC50 (± about 0.5) (converted)
Source text: Human recombinant PDE5 is disclosed in K. Loughney et al., “Isolation and characterisation of cDNAs encoding PDE5A, a human cGMP-binding, cGMP-specific 3′,5′-cyclic nucleotide phosphodiesterase”, Gene, 1998, 216, 139-147.
as §1, §2
Biological Data obtained for some of the Examples (PDE4B and/or PDE5 inhibitory activity, either as one reading or as an average of ca. 2-6 readings) are as follows, based on current measurements only. In each of the SPA and FP assays, absolute accuracy of measurement is not possible, and the readings given are accurate only up to about ±0.5 of a log unit, depending on the number of readings made and averaged: […]

[2] = tested on: conscious ferret (emesis); assay: In Vivo Assay 4: emetic episodes in the conscious ferret after oral PDE4 inhibitor; therapeutic index; parameters: species or system ferret (Mustela Pulorius Furo); details: p.o.
Experimental: (§3) In Vivo Assay 4. Evaluation of Therapeutic Index of Orally-administered PDE 4 inhibitors in the conscious ferret
(§4) PDE4 inhibitors are prepared for oral (p.o.) administration by dissolving in a fixed volume (1 ml) of acetone and then adding cremophor to 20% of the final volume. Acetone is evaporated by directing a flow of nitrogen gas onto the solution. Once the acetone is removed, the solution is made up to final volume with distilled water. LPS is dissolved in phosphate buffered saline.
Male ferrets (Mustela Pulorius Furo, weighing 1-2 kg) are transported and allowed to acclimatise for not less than 7 days. […]
(§5) PDE4 inhibitors are administered orally (p.o.), using a dose volume of 1 ml/kg. […] The animals are constantly observed and any emetic episodes (retching and vomiting) or behavioural changes are recorded. […]
(§6) Thirty minutes after oral dosing with compound or vehicle control, the ferrets are placed into sealed perspex containers and exposed to an aerosol of LPS (30 μg/ml) for 10 minutes. […] All emetic episodes and behavioural changes are recorded.
b) Emetic episodes—the number of vomits and retches are counted to determine the dose of PDE4 inhibitor that gives a 20% incidence of emesis (D20).
c) A therapeutic index (TI), using this assay, is then calculated for each PDE4 inhibitor using the following equation: […]

[3] = tested on: LPS-induced pulmonary neutrophilia; assay: In Vivo Assay 4: LPS-induced pulmonary neutrophilia in the conscious ferret; parameters: species or system ferret (Mustela Pulorius Furo); details: p.o.
Experimental: as §3, §4
Male ferrets (Mustela Pulorius Furo, weighing 1-2 kg) are transported and allowed to acclimatise for not less than 7 days. The diet comprises SDS diet C pelleted food given ad lib with Whiskers™ cat food given 3 times per week. […]
as §5, §6
Six hours after LPS exposure the animals are killed by overdose of sodium pentobarbitone administered intraperitoneally. […] From this, the total number of neutrophils in the BAL sample is determined. […]

| SMILES | Selectivity (PDE4B/PDE5 EMR ratio, not log scale) [1] | IC50 [1] | IC50 (PDE5 (human recombinant)) | D20 for emesis (dose that gives a 20% incidence of emesis) [2] | D50 for ferret neutrophilia (dose which gives 50% inhibition of LPS-induced pulmonary neutrophilia) [3] |
| --- | --- | --- | --- | --- | --- |
| CCn1ncc2c(N[C@@H](C)C(C)C)c(C(=O)Nc3ccc(F)cc3)cnc21 [Example 39, 4-{[(1S)-1,2-Dimethylpropyl]amino}-1-ethyl-N-(4-fluorophenyl)-1H-pyrazolo[3,4-b]pyridine-5-carboxamide] | ≧468 | 0.0631 µM | > 30.2 µM |  |  |
| CCC(C)Nc1c(C(=O)Nc2ccccc2)cnc2c1cnn2C(C)C (stereo not drawn) [Comparative Example 61, reference compound] | 21 | 0.2 µM | 5.01 µM |  |  |
| CCn1ncc2c(N[C@H](C)C(C)C)c(C(=O)Nc3ccc(F)cc3)cnc21 [Example 2, 4-{[(1R)-1,2-Dimethylpropyl]amino}-1-ethyl-N-(4-fluorophenyl)-1H-pyrazolo[3,4-b]pyridine-5-carboxamide] | 135 | 0.0631 µM | 7.94 µM |  |  |
| CCn1ncc2c(N[C@H](C)C(C)C)c(C(=O)NCc3ccccc3)cnc21 [Example 1, N-Benzyl-4-{[(1R)-1,2-dimethylpropyl]amino}-1-ethyl-1H-pyrazolo[3,4-b]pyridine-5-carboxamide] | 66 | 0.0158 µM | 1 µM |  |  |
| CCCCNC(=O)c1cnc2c(cnn2CC)c1NCCCC [4-butylamino-1-ethyl-pyrazolo[3,4-b]pyridine-5-(N-butyl)carboxamide, reference compound] | 2 | 0.158 µM | 0.398 µM |  |  |
| CCn1ncc2c(N[C@@H](C)C(C)C)c(C(=O)NCc3ccccc3)cnc21 [Example 38, N-Benzyl-4-{[(1S)-1,2-dimethylpropyl]amino}-1-ethyl-1H-pyrazolo[3,4-b]pyridine-5-carboxamide] | 501 | 0.02 µM | 10 µM |  |  |
| O=C(Nc1c(Cl)cncc1Cl)c1ccc(OC(F)F)c(OCC2CC2)c1 [roflumilast] |  |  |  | about 0.46 mg/kg | about 0.42 mg/kg |

The next lines start with results.

| Selectivity (PDE4B/PDE5 EMR ratio, not log scale) [1] | IC50 [1] | IC50 (PDE5 (human recombinant)) | SMILES | D20 for emesis (dose that gives a 20% incidence of emesis) [2] | D50 for ferret neutrophilia (dose which gives 50% inhibition of LPS-induced pulmonary neutrophilia) [3] |
| --- | --- | --- | --- | --- | --- |
|  | 0.0158 to 0.0631 µM | 0.631 to 3.16 µM | CC[C@H](C)Nc1c(C(=O)NCc2ccccc2)cnc2c1cnn2CC [compound 59, reference compound] |  |  |
| 437 | 0.00794 µM | 3.98 µM | CCC(CC)CNC(=O)c1cnc2c(cnn2CC)c1N[C@@H](C)C(C)C [Example 51, 4-{[(1S)-1,2-Dimethylpropyl]amino}-1-ethyl-N-(2-ethylbutyl)-1H-pyrazolo[3,4-b]pyridine-5-carboxamide] |  |  |
| ≧309 | 0.1 µM | > 30.2 µM | CCn1ncc2c(NC(C)(C)C)c(C(=O)Nc3ccc(F)cc3)cnc21 [Example 54, 4-(tert-Butylamino)-1-ethyl-N-(4-fluorophenyl)-1H-pyrazolo[3,4-b]pyridine-5-carboxamide] |  |  |
| 240 | 0.0158 µM | 3.98 µM | CCn1ncc2c(NC(C)(C)C)c(C(=O)NCc3ccccc3)cnc21 [Example 53, 4-(tert-Butylamino)-1-ethyl-N-benzyl-1H-pyrazolo[3,4-b]pyridine-5-carboxamide] |  |  |
|  | 0.0158 to 0.0631 µM | 0.631 to 3.16 µM | CC[C@@H](C)Nc1c(C(=O)NCc2ccccc2)cnc2c1cnn2CC [compound 58, reference compound] |  |  |
